In US20190330197A1, “SUBSTITUTED NAPHTHALENE DIIMIDES AND THEIR USE” (UCL Business PLC, priority 2015, published 2019):

Tests used:
[1] = system: Hsp90B sequence from the HSP90 promoter; experiment: FRET quadruplex stabilisation assay, Hsp90B; assay type: binding; conditions: compound at 1 μM, 60 mM potassium cacodylate buffer pH 7.4
Source text: (§1) The ability of the naphthalene diimide compounds to stabilize quadruplex DNA sequences was investigated using a fluorescence resonance energy transfer (FRET) assay modified to be used as a high-throughput screen in a 96-well format. Several quadruplex sequences were studied (including the human telomeric G-quadruplex DNA sequence 5′-FAM-d(GGG[TTAGGG]3)-TAMRA-3′ and the duplex sequence 5′-FAM-d[…]-HEG-[…]-TAMRA-3′ (HEG linker: [(—CH2—CH2—O—)6.
(§2) The labelled oligonucleotides have attached to them the donor fluorophore FAM: 6-carboxyfluorescein and the acceptor fluorophore TAMRA: 6-carboxytetramethylrhodamine. The FRET probe sequences were diluted from stock to the correct concentration (400 nM) in a 60 mM potassium cacodylate buffer (pH 7.4) and then annealed by heating to 85° C. for 10 min, followed by cooling to room temperature in the heating block. The compound was stored as a 10 mM stock solution in DMSO; final solutions (at 2× concentration) were prepared using 10 mM HCl in the initial 1:10 dilution, after which 60 mM potassium cacodylate buffer (pH 7.4) was used in all subsequent steps. The maximum HCl concentration in the reaction volume (at a ligand concentration of 20 μM) is thus 200 μM, well within the range of the buffer used. Relevant controls were also performed to check for interference with the assay. 96-Well plates (MJ Research, Waltham, Mass.) were prepared by aliquoting 50 μl of the annealed DNA into each well, followed by 50 μl of the compound solutions. Measurements were made on a DNA Engine Opticon (MJ Research) with excitation at 450-495 nm and detection at 515-545 nm. Fluorescence readings were taken at intervals of 0.5° C. in the range 30-100° C., with a constant temperature being maintained for 30 s prior to each reading to ensure a stable value. Final analysis of the data was carried out using a script written in the program Origin 7.0 (OriginLab Corp., Northampton, Mass.). The advanced curve-fitting function in Origin 7.0 was used for calculation of ΔTm values. All determinations were performed in triplicate or better. Esds in ΔTm are ±0.1° C.

[2] = system: Panc1 (pancreatic cancer) cells; experiment: SRB growth inhibition, Panc1; assay type: cell-based, human; conditions: 96 hr, SRB assay; read-out: short-term 96 hr IC50 Panc1
Method: (§3) Human cancer cell lines and the somatic human cell line WI-38 (lung fibroblast) were purchased from the American Type Culture Collection. Cell lines were maintained in appropriate medium supplemented with 10% foetal bovine serum (Invitrogen, UK), 2 mM L-glutamine (Invitrogen, Netherlands), and other components as specified by the suppliers. Cell lines were maintained at 37° C., 5% CO2 and routinely passaged. Drugs were dissolved in DMSO and filtered through 0.22 μm pore-size filter units before addition to cell line appropriate media. Cellular growth inhibition was measured using the sulforhodamine B (SRB) assay in 96 well plates. Fifty percent inhibitory concentrations (IC50) were determined by taking the mean absorbance at 540 nm for each drug concentration expressed as a percentage of the absorbance of untreated control wells.

MCF7 (breast) cells = experiment: SRB growth inhibition, MCF7; assay type: cell-based, human; conditions: 96 hr, SRB assay; read-out: short-term 96 hr IC50 MCF7
Method: as §3

[3] = system: Mia-PaCa2 (pancreatic cancer) cells; experiment: SRB growth inhibition, MiaPaCa2; assay type: cell-based, human; conditions: 96 hr, SRB assay; read-out: short-term 96 hr IC50 MiaPaCa2
Method: as §3

A549 (lung cancer) cells = experiment: SRB growth inhibition, A549; assay type: cell-based, human; conditions: 96 hr, SRB assay; read-out: short-term 96 hr IC50 A549
Method: as §3

[4] = system: WI38 (lung fibroblast) cells; experiment: SRB growth inhibition, WI38; assay type: cell-based, human; conditions: 96 hr, SRB assay; read-out: short-term 96 hr IC50 WI38
Method: as §3

[5] = system: ALT (Alternative Lengthening of Telomeres) cell line; experiment: SRB growth inhibition, ALT; assay type: cell-based, human; conditions: 96 hr, SRB assay; read-out: short-term 96 hr IC50 ALT
Method: as §3

[6] = system: Kras32 sequence from the promoter region of the kras gene; experiment: FRET quadruplex stabilisation assay, Kras32; assay type: binding; conditions: compound at 1 μM, 60 mM potassium cacodylate buffer pH 7.4
Source text: as §1, §2

[7] = system: human telomeric (F21T) G-quadruplex DNA; experiment: FRET quadruplex stabilisation assay, F21T; assay type: binding; conditions: compound at 1 μM, 60 mM potassium cacodylate buffer pH 7.4
Source text: as §1, §2

[8] = system: Hsp90A sequence from the HSP90 promoter; experiment: FRET quadruplex stabilisation assay, Hsp90A; assay type: binding; conditions: compound at 1 μM, 60 mM potassium cacodylate buffer pH 7.4
Source text: as §1, §2

## O=C1c2ccc3c4c(c(NCCN5CCCC5)cc(c24)C(=O)N1CCCN1CCOCC1)C(=O)N(CCCN1CCOCC1)C3=O [Compound 4c, 2,7-bis(3-morpholinopropyl)-4-((2-(pyrrolidin-1-yl)ethyl)amino)benzo[Imn][3,8]phenanthroline-1,3,6,8(2H,7H)-tetraone]
[1]
  ΔTm Hsp90B: 12.7 °C
[2]
  IC50: 22 nM
MCF7 (breast) cells
  IC50: 159 nM
[3]
  IC50: 12 nM
A549 (lung cancer) cells
  IC50: 24 nM
[4]
  IC50: 1190 nM
[5]
  IC50: 93 nM
[6]
  ΔTm Kras32: 9.6 °C
[7]
  ΔTm F21T: 11.8 °C
[8]
  ΔTm Hsp90A: 15.7 °C
